Data reported in patent US20250073185A1, “Composition Including Benzylaminoethanol Derivative as Active Ingredient for Prevention or Treatment of Metabolic Disease” (JLBIOTHERAPEUTICS, priority 2021, published 2025).

System: 3T3-L1 cells
Experiment: Cytotoxicity measurement (WST assay, EZ-Cytox)
Type: cell-based
Conditions: 3T3-L1 cells, 0.1, 1, 5, 10 and 25 μM, 48 hours
Protocol: After 48 hours, 10 μl of EZ-Cytox was added to each cell culture which was then incubated for 30 minutes, and the absorbance at 450 nm was measured using a microplate reader.

OCCNCc1cc(Br)ccc1OCc1ccc(F)c(C(F)(F)F)c1 [AZ1, 2-(5-bromo-2-(4-fluoro-3-(trifluoromethyl)benzyloxy)benzylamino)ethanol]
cytotoxicity (cell viability vs untreated cells): did not exhibit cytotoxicity
